Reference: US10787452B2 (Vertex Pharmaceuticals Incorporated, priority 2012, dated 2020)

Tested on: HCT116 colorectal cancer cells
Test: Cisplatin sensitization assay (96 h cell viability MTS);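 further: compound concentration needed to lower the Cisplatin-alone IC50 by a set fold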
Type: cell-based
Conditions: 96 h MTS, compound plus Cisplatin
Method in brief: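 Test compound and cisplatin were added together as a full matrix of 2-fold serial dilutions, each from a top final concentration of 10 μM. Cells were incubated 96 h at 37° C in 5% CO2, then viability was read by MTS after a further 1 h incubation.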

Row | Structure (SMILES) | Cisplatin Sensitization Assay
1 | CN1CCC[C@@H]1COc1ccncc1NC(=O)c1c(N)nn2cc(Cl)cnc12 [I-O-49, (R)-2-amino-6-chloro-N-(4-((1-methylpyrrolidin-2-yl)methoxy)pyridin-3-yl)pyrazolo[1,5-a]pyrimidine-3-carboxamide] | + (Compounds with a Cisplatin sensitization value >0.2 μM but <5 μM are marked with “+.”)
2 | CN1CC[C@H](Oc2ccncc2NC(=O)c2c(N)nn3cc(F)cnc23)C1 [I-O-1, (S)-2-amino-6-fluoro-N-(4-((1-methylpyrrolidin-3-yl)oxy)pyridin-3-yl)pyrazolo[1,5-a]pyrimidine-3-carboxamide] | +++ (Compounds with a Cisplatin sensitization value of <0.02 μM are marked with “+++.”)
3 | Nc1nn2cc(F)cnc2c1C(=O)Nc1cncc(F)c1N1CCC(C(=O)N2CCN(C3CCC3)CC2)CC1 [I-G-35, 2-amino-N-(4-(4-(4-cyclobutylpiperazine-1-carbonyl)piperidin-1-yl)-5-fluoropyridin-3-yl)-6-fluoropyrazolo[1,5-a]pyrimidine-3-carboxamide] | +++ (Compounds with a Cisplatin sensitization value of <0.02 μM are marked with “+++.”)
4 | COC1(C)CN(C(=O)C2CCN(c3ccncc3NC(=O)c3c(N)nn4cc(F)cnc34)CC2)C1 [I-G-79, 2-amino-6-fluoro-N-(4-(4-(3-methoxy-3-methylazetidine-1-carbonyl)piperidin-1-yl)pyridin-3-yl)pyrazolo[1,5-a]pyrimidine-3-carboxamide] | +++ (Compounds with a Cisplatin sensitization value of <0.02 μM are marked with “+++.”)
5 | Nc1nn2cc(Cl)cnc2c1C(=O)Nc1cnccc1N1CCN2CCC1CC2 [I-N-56, N-(4-(1,4-diazabicyclo[3.2.2]nonan-4-yl)pyridin-3-yl)-2-amino-6-chloropyrazolo[1,5-a]pyrimidine-3-carboxamide] | ++ (Compounds with a Cisplatin sensitization value >0.02 μM but <0.2 μM are marked with “++.”)
6 | Cc1cncc(NC(=O)c2c(N)nn3cc(F)cnc23)c1N1CCN(C2COC2)CC1 [I-N-16, 2-amino-6-fluoro-N-(5-methyl-4-(4-(oxetan-3-yl)piperazin-1-yl)pyridin-3-yl)pyrazolo[1,5-a]pyrimidine-3-carboxamide] | +++ (Compounds with a Cisplatin sensitization value of <0.02 μM are marked with “+++.”)
7 | N#CCc1cnc2c(C(=O)Nc3cnccc3OC3CCCOC3)c(N)nn2c1 (stereo not drawn) [I-O-41, 2-amino-6-(cyanomethyl)-N-(4-((tetrahydro-2H-pyran-3-yl)oxy)pyridin-3-yl)pyrazolo[1,5-a]pyrimidine-3-carboxamide] | +++ (Compounds with a Cisplatin sensitization value of <0.02 μM are marked with “+++.”)
8 | CN1CCC(Oc2ccncc2NC(=O)c2c(N)nn3cc(F)cnc23)CC1 [I-O-12, 2-amino-6-fluoro-N-(4-((1-methylpiperidin-4-yl)oxy)pyridin-3-yl)pyrazolo[1,5-a]pyrimidine-3-carboxamide] | +++ (Compounds with a Cisplatin sensitization value of <0.02 μM are marked with “+++.”)
9 | COCCN(C)C(=O)C1CCN(c2c(F)cncc2NC(=O)c2c(N)nn3cc(F)cnc23)CC1 [I-G-40, 2-amino-6-fluoro-N-(5-fluoro-4-(4-((2-methoxyethyl)(methyl)carbamoyl)piperidin-1-yl)pyridin-3-yl)pyrazolo[1,5-a]pyrimidine-3-carboxamide] | +++ (Compounds with a Cisplatin sensitization value of <0.02 μM are marked with “+++.”)
10 | CN1CCN(c2ccncc2NC(=O)c2c(N)nn3cc(Cl)cnc23)CC1CO (stereo not drawn) [I-N-63, 2-amino-6-chloro-N-(4-(3-(hydroxymethyl)-4-methylpiperazin-1-yl)pyridin-3-yl)pyrazolo[1,5-a]pyrimidine-3-carboxamide] | ++ (Compounds with a Cisplatin sensitization value >0.02 μM but <0.2 μM are marked with “++.”)
11 | Nc1nn2cc(F)cnc2c1C(=O)Nc1cncc(C2CC2)c1N1CCN(C2COC2)CC1 [I-N-32, 2-amino-N-(5-cyclopropyl-4-(4-(oxetan-3-yl)piperazin-1-yl)pyridin-3-yl)-6-fluoropyrazolo[1,5-a]pyrimidine-3-carboxamide] | ++ (Compounds with a Cisplatin sensitization value >0.02 μM but <0.2 μM are marked with “++.”)
12 | Cc1ncc(-c2ccncc2NC(=O)c2c(N)nn3cc(F)cnc23)n1C [I-C-77, 2-amino-N-(4-(1,2-dimethyl-1H-imidazol-5-yl)pyridin-3-yl)-6-fluoropyrazolo[1,5-a]pyrimidine-3-carboxamide] | +++ (Compounds with a Cisplatin sensitization value of <0.02 μM are marked with “+++.”)
13 | Nc1nn2cc(Cl)cnc2c1C(=O)Nc1cnccc1O[C@@H]1CCNC1 [I-O-77, (R)-2-amino-6-chloro-N-(4-(pyrrolidin-3-yloxy)pyridin-3-yl)pyrazolo[1,5-a]pyrimidine-3-carboxamide] | ++ (Compounds with a Cisplatin sensitization value >0.02 μM but <0.2 μM are marked with “++.”)
14 | Nc1nn2cc(F)cnc2c1C(=O)Nc1cncc(F)c1N1CCC(C(=O)N2CCN(C3CC3)CC2)CC1 [I-G-13, 2-amino-N-(4-(4-(4-cyclopropylpiperazine-1-carbonyl)piperidin-1-yl)-5-fluoropyridin-3-yl)-6-fluoropyrazolo[1,5-a]pyrimidine-3-carboxamide] | +++ (Compounds with a Cisplatin sensitization value of <0.02 μM are marked with “+++.”)
15 | Nc1nn2cc(Cl)cnc2c1C(=O)Nc1cnccc1O[C@H]1C[C@@]2(CCN2)C1 [I-O-79, N-(4-((4r,6s)-1-azaspiro[3.3]heptan-6-yloxy)pyridin-3-yl)-2-amino-6-chloropyrazolo[1,5-a]pyrimidine-3-carboxamide] | ++ (Compounds with a Cisplatin sensitization value >0.02 μM but <0.2 μM are marked with “++.”)
16 | COc1cncc(NC(=O)c2c(N)nn3cc(F)cnc23)c1C1CC1 [I-C-84, 2-amino-N-(4-cyclopropyl-5-methoxypyridin-3-yl)-6-fluoropyrazolo[1,5-a]pyrimidine-3-carboxamide] | ++ (Compounds with a Cisplatin sensitization value >0.02 μM but <0.2 μM are marked with “++.”)
17 | N#CCc1cnc2c(C(=O)Nc3cnccc3OC3CCOCC3)c(N)nn2c1 [I-O-30, 2-amino-6-(cyanomethyl)-N-(4-((tetrahydro-2H-pyran-4-yl)oxy)pyridin-3-yl)pyrazolo[1,5-a]pyrimidine-3-carboxamide] | +++ (Compounds with a Cisplatin sensitization value of <0.02 μM are marked with “+++.”)
18 | Nc1nn2cc(F)cnc2c1C(=O)Nc1cncc(F)c1N1CCN(C(=O)C23CCN(CC2)CC3)CC1 [I-N-134, 2-amino-6-fluoro-N-(5-fluoro-4-(4-(quinuclidine-4-carbonyl)piperazin-1-yl)pyridin-3-yl)pyrazolo[1,5-a]pyrimidine-3-carboxamide] | + (Compounds with a Cisplatin sensitization value >0.2 μM but <5 μM are marked with “+.”)
19 | Cc1ncnn1-c1ccncc1NC(=O)c1c(N)nn2cc(F)cnc12 [I-N-162, 2-amino-6-fluoro-N-(4-(5-methyl-1H-1,2,4-triazol-1-yl)pyridin-3-yl)pyrazolo[1,5-a]pyrimidine-3-carboxamide] | ++ (Compounds with a Cisplatin sensitization value >0.02 μM but <0.2 μM are marked with “++.”)
20 | N#CCc1cnc2c(C(=O)Nc3cnccc3N3CCOCC3)c(N)nn2c1 [I-N-81, 2-amino-6-(cyanomethyl)-N-(4-morpholinopyridin-3-yl)pyrazolo[1,5-a]pyrimidine-3-carboxamide] | +++ (Compounds with a Cisplatin sensitization value of <0.02 μM are marked with “+++.”)
21 | Nc1nn2cc(F)cnc2c1C(=O)Nc1cnccc1N1CCC(N2CCCC2=O)CC1 [I-N-230, 2-amino-6-fluoro-N-(4-(4-(2-oxopyrrolidin-1-yl)piperidin-1-yl)pyridin-3-yl)pyrazolo[1,5-a]pyrimidine-3-carboxamide] | +++ (Compounds with a Cisplatin sensitization value of <0.02 μM are marked with “+++.”)
22 | CN1CCN(c2ccncc2NC(=O)c2c(N)nn3cc(F)cnc23)CC1=O [I-N-209, 2-amino-6-fluoro-N-(4-(4-methyl-3-oxopiperazin-1-yl)pyridin-3-yl)pyrazolo[1,5-a]pyrimidine-3-carboxamide] | +++ (Compounds with a Cisplatin sensitization value of <0.02 μM are marked with “+++.”)
23 | COc1ccc(-c2ccncc2NC(=O)c2c(N)nn3cc(F)cnc23)cn1 [I-C-27, 2-amino-6-fluoro-N-(6-methoxy-[3,4′-bipyridin]-3′-yl)pyrazolo[1,5-a]pyrimidine-3-carboxamide] | ++ (Compounds with a Cisplatin sensitization value >0.02 μM but <0.2 μM are marked with “++.”)
24 | Nc1nn2cc(F)cnc2c1C(=O)Nc1cncc(F)c1N1CCN2C(=O)CC[C@@H]2C1 [I-N-182, (R)-2-amino-6-fluoro-N-(5-fluoro-4-(6-oxohexahydropyrrolo[1,2-a]pyrazin-2(1H)-yl)pyridin-3-yl)pyrazolo[1,5-a]pyrimidine-3-carboxamide] | ++ (Compounds with a Cisplatin sensitization value >0.02 μM but <0.2 μM are marked with “++.”)
25 | COCCN1CCC[C@H](Oc2ccncc2NC(=O)c2c(N)nn3cc(Cl)cnc23)C1 [I-O-67, (S)-2-amino-6-chloro-N-(4-((1-(2-methoxyethyl)piperidin-3-yl)oxy)pyridin-3-yl)pyrazolo[1,5-a]pyrimidine-3-carboxamide] | ++ (Compounds with a Cisplatin sensitization value >0.02 μM but <0.2 μM are marked with “++.”)
26 | N#CCc1cnc2c(C(=O)Nc3cnccc3N3CCC(N)CC3)c(N)nn2c1 [I-N-2, 2-amino-N-(4-(4-aminopiperidin-1-yl)pyridin-3-yl)-6-(cyanomethyl)pyrazolo[1,5-a]pyrimidine-3-carboxamide] | +++ (Compounds with a Cisplatin sensitization value of <0.02 μM are marked with “+++.”)
27 | COc1cncc(NC(=O)c2c(N)nn3cc(F)cnc23)c1-c1cncn1C [I-C-81, 2-amino-6-fluoro-N-(5-methoxy-4-(1-methyl-1H-imidazol-5-yl)pyridin-3-yl)pyrazolo[1,5-a]pyrimidine-3-carboxamide] | +++ (Compounds with a Cisplatin sensitization value of <0.02 μM are marked with “+++.”)
